Source: patent EP2548557A1, “Reserpine to treat cognitive faults of the central nervous system” (Dr. Loges + Co. GmbH, priority 2011, dated 2013)

Columns and labels:
[1] = tested on: metabotrope Gruppe II Rezeptoren; test: Hippocampus slice preparation: suppression of the reserpine effect by a glutamate receptor antagonist (metabotropic group II); format: cell-based, Ratte; conditions: co-superfusion of antagonist with Reserpin; single and multiple stimuli (Abb. 5, Abb. 6)
Excerpt: (§1) Wirkungen von Reserpin auf die Erregbarkeit der Pyramidenzellen wurden im Hippokampus-Schnittpräparat der Ratte bestimmt. Die Analyse der Wirkungen erfolgte auf zwei Ebenen. Zunächst wurde anhand der Applikation von Einzelreizen die normale Erregbarkeit überprüft und anschließend nach einer sog. "Theta-burst-Stimulation" die Auswirkungen auf die Langzeitpotenzierung gemessen. Im nächsten Schritt wurde versucht, die Wirkung von Reserpin mit Hilfe von verschiedenen Rezeptor-spezifischen Glutamat Antagonisten zu unterdrücken.
(§2) Desweiteren wurde die Erregbarkeit der Pyramidenzellen in der Ausgangslage durch Superfusion mit einem Glutamat Rezeptor Antagonisten verändert. In der Folge wurde dann gleichzeitig Reserpin mit den verschiedenen Antagonisten zusammen superfundiert, um eine antagonistische Wirkung zu erkennen.
(§3) Dieselbe Versuchsanordnung wurde noch einmal genutzt, um in Gegenwart verschiedenster Glutamat Rezeptor Antagonisten Hinweise für eine Interaktion zwischen Reserpin und einem der Glutamat-Rezeptoren (GluR5 Kainate steht dabei für den ionotropen GluR5 Kainate-Rezeptor, Glu NMDA - für ionotrope NMDA-Rezeptoren, Glu AMPA - für ionotrope AMPA-Rezeptoren, und Glu II - für metabotrope Gruppe II Rezeptoren) zu erhalten (Abb. 5 und Abb.6).
(§4) Es wurden vier Antagonisten getestet. Dabei steht UB 301 für den Kainate-Rezeptor-Antagonisten UBP 301, CAS-Nr. 569371-10-4, der Formel [drawing 2] […]

[2] = tested on: Pyramidenzellen im Hippokampus-Schnittpräparat; conditions: literature description (Dimpfel 1995) used as comparison; cited from earlier work
[3] = tested on: ionotrope AMPA-Rezeptoren; test: Hippocampus slice preparation: suppression of the reserpine effect by a glutamate receptor antagonist (AMPA); format: cell-based, Ratte; conditions: co-superfusion of antagonist with Reserpin; multiple stimuli
Excerpt: as §1, §2, §3, §4

[4] = tested on: Pyramidenzellen im Hippokampus-Schnittpräparat; test: Population spike of pyramidal cells and long-term potentiation in hippocampus slice preparation in vitro; format: cell-based, Ratte; conditions: 0,025-0,1 µg/Liter Reserpin, n=4 slices
Excerpt: Zunächst wurde anhand der Applikation von Einzelreizen die normale Erregbarkeit überprüft und anschließend nach einer sog. "Theta-burst-Stimulation" die Auswirkungen auf die Langzeitpotenzierung gemessen.
Das Experiment selbst wurde in einer sog. "Base Unit" mit Haas Top" (Firma Medical Systems Corp., USA) bei 35 Grad Celsius durchgeführt. Der mit Hilfe peristaltischer Pumpen (Infusomat B. Braun Melsungen AG) superfundierte Hippokampus-Schnitt lag auf einem Stück Gaze. Eingeleitetes Carbogen hielt die erforderliche Sauerstoffzufuhr der Lösung aufrecht. Die Durchflussgeschwindigkeit betrug 200 ml/h.
Dabei wurde der Schnitt zunächst mit Kontrolllösung superfundiert. […] Jeder Schnitt wurde jeweils nur zu einem Experiment benutzt.
Die Ableitung der evozierten Antwort erfolgte in 10-minütigem Abstand extrazellulär mit einer gezogenen Glaskapillare (Elektrodenpuller, Rhema Labortechnik, DE). Das Antwortsignal wurde verstärkt (Verstärker "LMI", List Electronics, Darmstadt, DE) mit einem Laborrechnersystem Labteam (Software NeuroTool, MediSyst GmbH, Linden DE) analog digital gewandelt (Auflösung 12 Bit) und ausgewertet. Nach Auffinden eines geeigneten Signals (Amplitudenhöhe etwa 1 mV) wurde die Amplitudenhöhe des Populationsspikes (SAP=Summenaktionspotential; Popspike) als Ausgangsgröße festgelegt. […]

[5] = tested on: Fischer-344 Ratten; test: Tele-Stereo-EEG: changes of EEG frequencies (spectral power) after oral administration; format: in vivo, Ratte
Experimental: Die Veränderungen der EEG-Frequenzen wurde nach oraler Gabe von Lactosemonohydrat (Kontrolle/Vehikel) bzw. Verdünnungen von Reserpin in Lactosemonohydrat entsprechend 0,01, 0,02 oder 0,04 µg Reserpin/kg Körpergewicht) bestimmt.
Die Untersuchungen wurden analog der durch W. Dimpfel beschriebenen Methode (Dimpfel W Preclinical data base of pharmaco-specific rat EEG fingerprints (Tele-Stereo-EEG). Eur J Med Res (2003) 8: 199-207; auf dieses Dokument wird vollinhaltlich bezug genommen) folgendermaßen durchgeführt:
Zwölf männlichen erwachsenen Fischer-344 Ratten (Tag-Nacht konvertiert) wurden im Alter von 6 Monaten 4 bipolar konzentrische Elektroden zusammen mit einem Mikrostecker auf einer gemeinsamen Basisplatte implantiert. Der Stecker diente der Aufnahme eines 4-Kanal-Senders zur telemetrischen Übertragung der aus frontalem Kortex, Hippokampus, Striatum und Formatio Reticularis abgeleiteten Feldpotentiale. Die Signale wurden auf einem Computer System (Software "EEG-Analyse", Betriebssystem OS Science, Laborrechner "LabTeam" der Firma MediSyst, Linden, DE) in Echtzeit einer Fast-FourierTransformation unterworfen und die Leistungsdichtespektren jeweils über 60 Minuten gemittelt. Die Unterteilung der Spektren in 6 verschiedene Frequenzbereiche erlaubte die Erfassung pharmako-spezifischer Veränderungen in Bezug auf die jeweils vor Applikation gemessenen Vorwerte innerhalb dieser Frequenzbänder.
Zum Applikationsprotokoll der Substanzen: die Substanzen wurden oral 45 Minuten nach Beginn der Messungen (Vorwert) appliziert. Fünf Minuten später wurden die Messungen wieder gestartet, mindestens über die nächsten 5 Stunden kontinuierlich analysiert und in 60-minütigen Perioden zusammengefasst. Die Testsubstanz wurde in einer Dosierung von 0,01, 0,02 und 0,04 µg/kg appliziert. Die experimentelle Serie wurde mit der Applikation von Lactosemonohydrat (Kontrolle), die zu keiner auffälligen Änderung führte, begonnen (oberste Zeile in Abb. 1).
Der statistische Vergleich der Versuche zu den Ergebnissen, die nach Gabe des Vehikels gemessen wurde, erfolgte mit Hilfe des statistischen Tests nach Wilcoxon, Mann und Whitney auf der Basis der Veränderungen innerhalb der einzelnen Frequenzbänder in allen Hirnregionen als Variablen.

NC1(C(=O)O)CCc2cc(P(=O)(O)O)ccc21 (racemic) [RS-Apica, (RS)-1-Amino-5-phosphono-indan-1-carbonsäure]
Unterdrückung der Wirkung von Reserpin durch Antagonist [1]: besonders ausgeprägt unterdrücken

CC12CC3CC(C)(C1)CC(N)(C3)C2 [Memantin]
Langzeit-Potenzierung (LTP) bei multipler elektrischer Reizung [2]: Steigerung der LTP

NS(=O)(=O)c1cccc2c1c([N+](=O)[O-])cc1[nH]c(=O)c(=O)[nH]c12 [NBQX]
Unterdrückung der Wirkung von Reserpin durch Antagonist [3]: auch eine Unterdrückung

COC(=O)[C@H]1[C@H]2C[C@@H]3c4[nH]c5cc(OC)ccc5c4CCN3C[C@H]2C[C@@H](OC(=O)c2cc(OC)c(OC)c(OC)c2)[C@@H]1OC [Reserpin, (1S,2R,3R,4aS,13bR,14aS)-2,11-Dimethoxy-3-(3,4,5-trimethoxybenzoyloxy)-1,2,3,4,4a,5,7,8,13,13b,14,14a-dodecahydroindolo[2',3':3,4]pyrido[1,2-b]isochinolin-1-carbonsäuremethylester]
Amplitude des Populationsspikes bei Einzelreizung ([4]; single stimuli of Schaffer collaterals): Konzentrations-abhängige Zunahme | Auslösung der Langzeitpotenzierung durch TBS ([4]; theta-burst stimulation): Konzentrations-abhängig verbessert | Frequenzmuster in der Diskriminanzanalyse im Vergleich zu Referenzmedikamenten ([5]; 0.02 µg/kg, 35 - 65 min, linear discriminant analysis, 4 brain regions x 6 frequency bands, compared with Memantin, Rasagiline, Methylphenidat): korreliert in auffälliger Weise mit den Mustern | Steigerung der Motilität der Tiere ([5]; oral, 0,01, 0,02 and 0,04 µg/kg): nicht beobachtet | alpha2 Wellen (spektrale Leistung) ([5]; oral, 0,01, 0,02 and 0,04 µg/kg, frequency band most affected): Besonders stark waren die alpha2 Wellen betroffen | spektrale Leistung in allen Frequenzbereichen (EEG) ([5]; oral, 0,01, 0,02 and 0,04 µg/kg, frontal cortex, hippocampus, striatum, formatio reticularis, vs. vehicle Lactosemonohydrat, n=12): dosis-abhängigen Unterdrückung der spektralen Leistung in allen Frequenzbereichen
